# Results as given in patent publication US7659404B2, “Broad spectrum 2-(substituted-amino)-benzothiazole sulfonamide HIV protease inhibitors” (Tibotec Pharmaceuticals Ltd., priority 2001, dated 2010).
# Columns and labels:
# virus strain F (R13025) = test: microbe, parasite or virus in culture; assay type: cell-based, HIV; conditions: FR=EC50(mutant strain)/EC50(HIV-1 strain LAI); strain F
# How it was run: (§1)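 HIV-infected MT4 cells were incubated five days with inhibitor, and viability was read by MTT reduction at 540 nm. EC50/EC90 are the concentrations protecting 50%/90% of cells from viral cytopathic effect. Fold resistance is EC50 against the clinical isolate divided by EC50 against HIV-1 LAI.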
# virus strain S (R13080) = test: microbe, parasite or virus in culture; assay type: cell-based, HIV; conditions: FR=EC50(mutant strain)/EC50(HIV-1 strain LAI); strain S
# How it was run: as §1
# [1] = system: clinically isolated HIV strain A; test: Antiviral spectrum, cellular assay (fold resistance), strain A; assay type: cell-based; conditions: FR=EC50(mutant strain)/EC50(HIV-1 strain LAI)
# Protocol: (§2) HIV- or mock-infected MT4 cells were incubated for five days in the presence of various concentrations of the inhibitor. At the end of the incubation period, all HIV-infected cells have been killed by the replicating virus in the control cultures in the absence of any inhibitor. Cell viability is measured by measuring the concentration of MTT, a yellow, water soluble tetrazolium dye that is converted to a purple, water insoluble formazan in the mitochondria of living cells only. Upon solubilization of the resulting formazan crystals with isopropanol, the absorbance of the solution is monitored at 540 nm. The values correlate directly to the number of living cells remaining in the culture at the completion of the five day incubation. The inhibitory activity of the compound was monitored on the virus-infected cells and was expressed as EC50 and EC90. These values represent the amount of the compound required to protect 50% and 90%, respectively, of the cells from the cytopathogenic effect of the virus. The toxicity of the compound was measured on the mock-infected cells and was expressed as CC50, which represents the concentration of compound required to inhibit the growth of the cells by 50%. The selectivity index (SI) (ratio CC50/EC50) is an indication of the selectivity of the anti-HIV activity of the inhibitor.
# (§3) Because of the increasing emergence of drug resistant HIV strains, the present compounds were tested for their potency against clinically isolated HIV strains harboring several mutations. These mutations are associated with resistance to protease inhibitors and result in viruses that show various degrees of phenotypic cross-resistance to the currently commercially available drugs such as for instance saquinavir, ritonavir, nelfinavir, indinavir and amprenavir.
# (§4) As a measure of the broad spectrum activity of the present compounds, the fold resistance (FR) defined as FR=EC50(mutant strain)/EC50(HIV-1 strain LAI).
# [2] = system: clinically isolated HIV strain B; test: Antiviral spectrum, cellular assay (fold resistance), strain B; assay type: cell-based; conditions: FR=EC50(mutant strain)/EC50(HIV-1 strain LAI)
# Protocol: as §2, §3, §4
# [3] = system: clinically isolated HIV strain C; test: Antiviral spectrum, cellular assay (fold resistance), strain C; assay type: cell-based; conditions: FR=EC50(mutant strain)/EC50(HIV-1 strain LAI)
# Protocol: as §2, §3, §4
# [4] = system: clinically isolated HIV strain D; test: Antiviral spectrum, cellular assay (fold resistance), strain D; assay type: cell-based; conditions: FR=EC50(mutant strain)/EC50(HIV-1 strain LAI)
# Protocol: as §2, §3, §4
# [5] = system: clinically isolated HIV strain E; test: Antiviral spectrum, cellular assay (fold resistance), strain E; assay type: cell-based; conditions: FR=EC50(mutant strain)/EC50(HIV-1 strain LAI)
# Protocol: as §2, §3, §4
# [6] = system: clinically isolated HIV strain G; test: Antiviral spectrum, cellular assay (fold resistance), strain G; assay type: cell-based; conditions: FR=EC50(mutant strain)/EC50(HIV-1 strain LAI)
# Protocol: as §2, §3, §4
# [7] = system: clinically isolated HIV strain H; assay type: cell-based; conditions: FR=EC50(mutant strain)/EC50(HIV-1 strain LAI)
# How it was run: as §1
# [8] = system: clinically isolated HIV strain I; assay type: cell-based; conditions: FR=EC50(mutant strain)/EC50(HIV-1 strain LAI)
# How it was run: as §1
# [9] = system: clinically isolated HIV strain J; assay type: cell-based; conditions: FR=EC50(mutant strain)/EC50(HIV-1 strain LAI)
# How it was run: as §1
# [10] = system: clinically isolated HIV strain O; assay type: cell-based; conditions: FR=EC50(mutant strain)/EC50(HIV-1 strain LAI)
# How it was run: as §1
# [11] = system: clinically isolated HIV strain T; assay type: cell-based; conditions: FR=EC50(mutant strain)/EC50(HIV-1 strain LAI)
# How it was run: as §1
# [12] = system: clinically isolated HIV strain K; test: Antiviral spectrum, cellular assay (fold resistance), strain K; assay type: cell-based; conditions: FR=EC50(mutant strain)/EC50(HIV-1 strain LAI)
# Protocol: as §2, §3, §4
# [13] = system: clinically isolated HIV strain L; test: Antiviral spectrum, cellular assay (fold resistance), strain L; assay type: cell-based; conditions: FR=EC50(mutant strain)/EC50(HIV-1 strain LAI)
# Protocol: as §2, §3, §4
# [14] = system: clinically isolated HIV strain M; test: Antiviral spectrum, cellular assay (fold resistance), strain M; assay type: cell-based; conditions: FR=EC50(mutant strain)/EC50(HIV-1 strain LAI)
# Protocol: as §2, §3, §4
# [15] = system: clinically isolated HIV strain N; test: Antiviral spectrum, cellular assay (fold resistance), strain N; assay type: cell-based; conditions: FR=EC50(mutant strain)/EC50(HIV-1 strain LAI)
# Protocol: as §2, §3, §4
# [16] = system: clinically isolated HIV strain P; test: Antiviral spectrum, cellular assay (fold resistance), strain P; assay type: cell-based; conditions: FR=EC50(mutant strain)/EC50(HIV-1 strain LAI)
# Protocol: as §2, §3, §4
# [17] = system: clinically isolated HIV strain Q; test: Antiviral spectrum, cellular assay (fold resistance), strain Q; assay type: cell-based; conditions: FR=EC50(mutant strain)/EC50(HIV-1 strain LAI)
# Protocol: as §2, §3, §4
# [18] = system: clinically isolated HIV strain R; test: Antiviral spectrum, cellular assay (fold resistance), strain R; assay type: cell-based; conditions: FR=EC50(mutant strain)/EC50(HIV-1 strain LAI)
# Protocol: as §2, §3, §4
SMILES,"fold resistance (FR), strain F (virus strain F (R13025))","fold resistance (FR), strain S (virus strain S (R13080))","fold resistance (FR), strain A [1]","fold resistance (FR), strain B [2]","fold resistance (FR), strain C [3]","fold resistance (FR), strain D [4]","fold resistance (FR), strain E [5]","fold resistance (FR), strain G [6]","fold resistance (FR), strain H [7]","fold resistance (FR), strain I [8]","fold resistance (FR), strain J [9]","fold resistance (FR), strain O [10]","fold resistance (FR), strain T [11]","fold resistance (FR), strain K [12]","fold resistance (FR), strain L [13]","fold resistance (FR), strain M [14]","fold resistance (FR), strain N [15]","fold resistance (FR), strain P [16]","fold resistance (FR), strain Q [17]","fold resistance (FR), strain R [18]"
CC(=O)Nc1nc2ccc(S(=O)(=O)N(CC(C)C)CC(O)C(Cc3ccccc3)NC(=O)OC3COC4OCCC34)cc2s1 (mixture of isomers) [Compound 1],0.8,1.0,0.4,0.3,0.7,0.7,0.6,0.3,0.9,0.8,0.5,0.4,5.1,0.4,0.2,0.5,1.0,0.2,0.8,0.7
CC(C)CN(C[C@@H](O)[C@H](Cc1ccccc1)NC(=O)O[C@H]1CO[C@H]2OCC[C@H]21)S(=O)(=O)c1ccc2nc(NC(=O)CN3CCCC3)sc2c1.Cl [Compound 14],0.4,0.7,0.2,0.2,0.2,0.2,0.3,0.2,0.5,0.4,0.3,0.3,5.9,0.2,0.1,0.2,0.9,0.2,0.3,0.2
CC(C)CN(C[C@@H](O)[C@H](Cc1ccccc1)NC(=O)O[C@H]1CCOC1)S(=O)(=O)c1ccc2nc(NC(=O)CN(C)C)sc2c1 [Compound 34],61.9,99.6,5.0,5.9,5.5,6.6,4.5,3.2,11.4,5.6,5.8,5.0,802.7,1.3,1.2,1.2,4.0,0.9,4.0,1.1
Cc1cccc(C)c1OCC(=O)N[C@@H](Cc1ccccc1)[C@H](O)CN(CC(C)C)S(=O)(=O)c1ccc2nc(NC(=O)CN3CCCC3)sc2c1 [Compound 37],6.1,10.0,6.1,1.9,3.8,1.4,1.6,1.3,4.1,6.8,5.0,7.3,185.8,0.5,2.1,5.0,1.4,0.3,3.8,1.5
CC(C)CN(C[C@@H](O)[C@H](Cc1ccccc1)NC(=O)O[C@H]1CCOC1)S(=O)(=O)c1ccc2nc(NC(=O)CN3CCNCC3)sc2c1 [Compound 35],2.1,4.3,0.5,0.9,0.6,0.5,0.9,0.5,0.8,0.8,0.8,0.3,22.2,0.4,0.2,0.6,1.1,0.2,0.9,0.9
CC(=O)N(C)c1nc2ccc(S(=O)(=O)N(CC(C)C)CC(O)C(Cc3ccccc3)NC(=O)OC3COC4OCCC34)cc2s1 (mixture of isomers) [Compound 9],13.0,29.3,1.5,1.5,1.6,5.7,2.3,1.5,6.7,2.3,6.2,3.7,550.9,1.0,0.7,0.5,1.5,0.2,1.8,1.2
CC(C)CN(C[C@@H](O)[C@H](Cc1ccccc1)NC(=O)O[C@H]1CCOC1)S(=O)(=O)c1ccc2nc(NC(=O)CN3CCN(C)CC3)sc2c1.O=C(O)C(F)(F)F [Compound 64],4.6,17.0,0.7,0.7,0.6,0.6,0.7,0.6,0.9,1.3,1.0,0.8,165.5,0.7,0.2,0.7,0.9,0.2,2.3,0.6
